This passage reports viability results from PMC12040169 (PLOS Biology, 2025).

This data set is described as follows: in vitro. To be noted: human, hela cells, % viability.
On to `CC(C)(C)NC(=O)Cn1cnc2c(cnn2-c2ccccc2)c1=O` [CBK269586], for which the viability (in general, a read-out of living cells in per cent, often relative to untreated cells) at 28.5 h, 10 µM is 91.6%.

Consider `COCc1nc2n(n1)CC(NC1CCCc3sccc31)CC2` (centres unmarked) [CBK305116], for which the viability at 28.5 h, 10 µM was determined as 90.1%. Regarding `CC(C)C[C@H](NC(=O)N1CC(=O)Nc2ccccc21)C(=O)O` [CBK286589], the viability at 28.5 h, 10 µM was 94.8%. The value for `c1ccc(CCN2CCC(c3nc(-c4ccccc4)no3)CC2)cc1` [CBK051454] was 89.8%; that for `COc1ccc(C(NC(=O)[C@H]2CCCN2C(=O)NCc2ccccc2C)c2ccccc2C)cn1` (some centres unmarked) [CBK075051] was 90.9%; that for `O=C(NCc1ccco1)c1ccccc1NS(=O)(=O)c1ccc(Br)s1` [CBK077969] was 79.9%.

On to `CC(C)(C)OC(=O)N1CCN(Cc2ccn(Cc3ccc(S(C)(=O)=O)cc3)c2)CC1` [CBK144936], for which the viability at 28.5 h, 10 µM came out at 119%. The value for `Oc1ccc(/C=N/c2nnn[nH]2)cc1` [CBK260976] was 101%; that for `CCCC(=O)NCCn1nc(-c2ccccc2F)cc1CN(C)C` [CBK282000] was 111%; that for `Cc1nn(C)c(Cl)c1S(=O)(=O)Nc1ccc2cn[nH]c2c1` [CBK067141] was 90.2%. Take `CC(C)(C)NS(=O)(=O)c1ccc(OCC(=O)O)cc1` [CBK287077]: the viability at 28.5 h, 10 µM stood at 100%. The result for `NS(=O)(=O)c1ccc(CCNC(=O)c2ccc(Cl)c([N+](=O)[O-])c2)cc1` [CBK264395] reads 94.8%; that for `O=C(O)CCC1NC(=O)N(C2CCCCC2)C1=O` (centres unmarked) [CBK287046], 77.3%. With `CC1=NN(c2nc(-c3cccc([N+](=O)[O-])c3)cs2)C(=O)C1/N=N/c1ccc(C)c(Br)c1` (centres unmarked) [CBK262430], the viability at 28.5 h, 10 µM was determined as 104%. The value for `O=C(Nc1cccc2cc[nH]c12)c1cc(F)c(Cl)cc1F` [CBK160080] was 82.4%; that for `c1ccc(N2CCN(c3cc(-c4cc5ccccc5s4)ncn3)CC2)nc1` [CBK091084] was 102%. The result for `CCCCc1ccc(-c2nc3ncccc3cc2O)cc1` [CBK073702] reads 91.3%; that for `COc1cc(C(=O)NCC(=O)O)cc(OC)c1OC` [CBK261039], 89.9%. As to `CC(C)c1nnc(NS(=O)(=O)c2ccc(N)cc2)s1` [CBK050163], the viability at 28.5 h, 10 µM was 101%. In the case of `c1ccc2c(c1)CCC(CNCCN1CCOCC1)O2` (centres unmarked) [CBK023956G], the viability at 28.5 h, 10 µM came to 94%. The value for `Cc1cc(C)n(C2CCN(Cc3c(C)nc4c(C)cccn34)CC2)n1` [CBK281617] was 101%; that for `NNC(=O)CN(CCc1ccccc1)S(=O)(=O)c1ccc(Cl)cc1` [CBK263754] was 86.2%. Take `Cc1ccccc1-n1ccn(S(=O)(=O)c2ccccc2)c1=O` [CBK106567]: the viability at 28.5 h, 10 µM worked out at 86.7%.

For the molecule `CC(=O)Nc1ccc(/C(C)=N/NC(=O)c2ccc(CN3CCOCC3)cc2)cc1` [CBK262720], the viability at 28.5 h, 10 µM turned out to be 91.7%.

For `O=C(O)c1cnc2ccc(F)cc2c1N1CCOCC1` [CBK287851], the viability at 28.5 h, 10 µM turned out to be 82.5%.

Take `N#Cc1c(NC(=O)CN2CCCCC2)sc2c1CCCC2` [CBK261619]: the viability at 28.5 h, 10 µM came to 89.6%. The result for `CS(=O)(=O)N(CC(=O)N1CCN(Cc2ccc3c(c2)OCO3)CC1)c1cccc(F)c1` [CBK074572] reads 102%. As to `Cc1ccc(S(=O)(=O)Nc2c(C(=O)N3CCN(C)CC3)sc3ncccc23)cc1[N+](=O)[O-]` [CBK050025], the viability at 28.5 h, 10 µM is 91.2%. The value for `Sc1nnc2sc3ccccc3n12` [CBK018156] was 103%; that for `CN(C)c1ccc(C=C2CCCC3C2=NN(C(=O)CCC(=O)O)C3c2ccc(N(C)C)cc2)cc1` (centres unmarked) [CBK296065] was 86.8%; that for `c1ccc2sc(-n3cncn3)nc2c1` [CBK027022] was 92.2%.

As to `O=S(=O)(c1ccc(-c2ccccc2)cc1)N1CCCN(CCCOC2CCCCO2)CC1` (centres unmarked) [CBK063137], the viability at 28.5 h, 10 µM stood at 114%.
